For test [1], the system named is acetylation of the histone H3 Lysine 14 marker in U2OS cells. The experiment in a line: Histone H3 Lysine 14 Acetylation Biomarker Assay. The format is cell-based. The settings on record: Homo sapiens, serum free medium, 24 hours incubation, read-out: IC50, inhibition of histone H3 Lysine 14 acetylation.
The target in a further test is TIP60-KAT5 (Homo sapiens, UniProt Q92993). The experiment in a line: Acetyltransferase biochemical assay (AlphaScreen), KAT5.
Test [2] relates to acetylation of the histone H3K23 marker in U2OS cells. The experiment in a line: Histone H3 Lysine 23 Acetylation Biomarker Assay. The settings on record: Homo sapiens, 24 hours incubation, read-out: IC50, inhibition of histone H3K23 acetylation. The format is cell-based. As to the method: Compounds were tested for their ability to inhibit acetylation of the histone H3K23 marker in the following assay:
The cell line U2OS was seeded at a density of 9,000 cells per well in 96 well optical quality tissue culture plates in RPMI medium and 10% foetal bovine serum, and allowed to adhere for 24 hours under standard culture conditions (37 degree Celsius, 5% CO2). At the end of this period the medium was aspirated. […] After incubation for 24 hours, the cells were fixed with 3.7% formaldehyde in PBS for 20 minutes at room temperature, washed (5×5 minutes) with phosphate buffer saline containing 0.1% Tween 20 and blocked with Odyssey blocking buffer (LI-COR, Lincoln, Nebr.) containing 0.1% TritonX100. Anti-H3K23ac specific antibody (Abcam ab177275) in Odyssey blocking buffer containing 0.1% Tween 20 was added and incubated for 16 hours at 4 degree Celsius. After washing (as above), a secondary antibody labelled with Alexa647 dye (LifeTechnologies) and Hoechst 33342 (1 μg/mL, SigmaAldrich) were added for 1 hour incubation. Plates were washed as previously and read on a PerkinElmer Phenix high content imaging platform. Using a Columbus image analysis pipeline, individual nuclei were located by Hoechst 33342 stain and the acetylation level was calculated from the Alexa647-related intensity in the same area.

Another test has as its target T1, MOF-KAT8 (Homo sapiens, UniProt Q9H7Z6).
T1 sequence (Q9H7Z6 with tags, fused parts or gaps): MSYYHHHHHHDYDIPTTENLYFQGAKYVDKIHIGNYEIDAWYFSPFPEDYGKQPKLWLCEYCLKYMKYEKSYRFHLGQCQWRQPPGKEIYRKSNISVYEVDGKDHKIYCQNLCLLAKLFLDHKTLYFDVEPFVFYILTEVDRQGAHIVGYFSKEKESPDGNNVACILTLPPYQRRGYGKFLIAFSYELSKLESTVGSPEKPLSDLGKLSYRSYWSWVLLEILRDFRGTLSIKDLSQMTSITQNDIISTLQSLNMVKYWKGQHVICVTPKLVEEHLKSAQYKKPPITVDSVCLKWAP
The experiment in a line: biochemical.

For a further test, the target named is MOZ-KAT6A (Homo sapiens, UniProt Q92794, A567V). The experiment in a line: Acetyltransferase biochemical assay (AlphaScreen), KAT6A.
Another test deals with T2, QKF-KAT6B (Homo sapiens, UniProt Q8WYB5).
T2 construct: purchased SignalChem K315-381BG
Put plainly: Acetyltransferase biochemical assay (AlphaScreen), KAT6B. As to conditions: 8 nM KAT6B, 1 μM AcCoA, 100 nM histone H3.1. An excerpt: KAT6B was obtained from SignalChem, catalog ID: K315-381BG
Background: In Alpha technology, singlet oxygen from a donor bead excites a nearby acceptor bead.

Test [3] has as its system histone H2A.Z Lysine 7 acetylation marker in U2OS cells. The experiment in a line: H2A.Z Lysine 7 Acetylation Biomarker Assay. As to conditions: Homo sapiens, serum free medium, 24 hours incubation, read-out: IC50, inhibition of histone H2A.Z Lysine 7 acetylation. The format is cell-based.
A further test has as its target HBO-KAT7 (Homo sapiens, UniProt O95251). The experiment in a line: Acetyltransferase biochemical assay (AlphaScreen), KAT7.

Where only a bound is given, the exact number is not on record here.

In general, IC50 refers to the concentration at which inhibition is half-maximal.

T2 sequence (Q8WYB5 whole entry): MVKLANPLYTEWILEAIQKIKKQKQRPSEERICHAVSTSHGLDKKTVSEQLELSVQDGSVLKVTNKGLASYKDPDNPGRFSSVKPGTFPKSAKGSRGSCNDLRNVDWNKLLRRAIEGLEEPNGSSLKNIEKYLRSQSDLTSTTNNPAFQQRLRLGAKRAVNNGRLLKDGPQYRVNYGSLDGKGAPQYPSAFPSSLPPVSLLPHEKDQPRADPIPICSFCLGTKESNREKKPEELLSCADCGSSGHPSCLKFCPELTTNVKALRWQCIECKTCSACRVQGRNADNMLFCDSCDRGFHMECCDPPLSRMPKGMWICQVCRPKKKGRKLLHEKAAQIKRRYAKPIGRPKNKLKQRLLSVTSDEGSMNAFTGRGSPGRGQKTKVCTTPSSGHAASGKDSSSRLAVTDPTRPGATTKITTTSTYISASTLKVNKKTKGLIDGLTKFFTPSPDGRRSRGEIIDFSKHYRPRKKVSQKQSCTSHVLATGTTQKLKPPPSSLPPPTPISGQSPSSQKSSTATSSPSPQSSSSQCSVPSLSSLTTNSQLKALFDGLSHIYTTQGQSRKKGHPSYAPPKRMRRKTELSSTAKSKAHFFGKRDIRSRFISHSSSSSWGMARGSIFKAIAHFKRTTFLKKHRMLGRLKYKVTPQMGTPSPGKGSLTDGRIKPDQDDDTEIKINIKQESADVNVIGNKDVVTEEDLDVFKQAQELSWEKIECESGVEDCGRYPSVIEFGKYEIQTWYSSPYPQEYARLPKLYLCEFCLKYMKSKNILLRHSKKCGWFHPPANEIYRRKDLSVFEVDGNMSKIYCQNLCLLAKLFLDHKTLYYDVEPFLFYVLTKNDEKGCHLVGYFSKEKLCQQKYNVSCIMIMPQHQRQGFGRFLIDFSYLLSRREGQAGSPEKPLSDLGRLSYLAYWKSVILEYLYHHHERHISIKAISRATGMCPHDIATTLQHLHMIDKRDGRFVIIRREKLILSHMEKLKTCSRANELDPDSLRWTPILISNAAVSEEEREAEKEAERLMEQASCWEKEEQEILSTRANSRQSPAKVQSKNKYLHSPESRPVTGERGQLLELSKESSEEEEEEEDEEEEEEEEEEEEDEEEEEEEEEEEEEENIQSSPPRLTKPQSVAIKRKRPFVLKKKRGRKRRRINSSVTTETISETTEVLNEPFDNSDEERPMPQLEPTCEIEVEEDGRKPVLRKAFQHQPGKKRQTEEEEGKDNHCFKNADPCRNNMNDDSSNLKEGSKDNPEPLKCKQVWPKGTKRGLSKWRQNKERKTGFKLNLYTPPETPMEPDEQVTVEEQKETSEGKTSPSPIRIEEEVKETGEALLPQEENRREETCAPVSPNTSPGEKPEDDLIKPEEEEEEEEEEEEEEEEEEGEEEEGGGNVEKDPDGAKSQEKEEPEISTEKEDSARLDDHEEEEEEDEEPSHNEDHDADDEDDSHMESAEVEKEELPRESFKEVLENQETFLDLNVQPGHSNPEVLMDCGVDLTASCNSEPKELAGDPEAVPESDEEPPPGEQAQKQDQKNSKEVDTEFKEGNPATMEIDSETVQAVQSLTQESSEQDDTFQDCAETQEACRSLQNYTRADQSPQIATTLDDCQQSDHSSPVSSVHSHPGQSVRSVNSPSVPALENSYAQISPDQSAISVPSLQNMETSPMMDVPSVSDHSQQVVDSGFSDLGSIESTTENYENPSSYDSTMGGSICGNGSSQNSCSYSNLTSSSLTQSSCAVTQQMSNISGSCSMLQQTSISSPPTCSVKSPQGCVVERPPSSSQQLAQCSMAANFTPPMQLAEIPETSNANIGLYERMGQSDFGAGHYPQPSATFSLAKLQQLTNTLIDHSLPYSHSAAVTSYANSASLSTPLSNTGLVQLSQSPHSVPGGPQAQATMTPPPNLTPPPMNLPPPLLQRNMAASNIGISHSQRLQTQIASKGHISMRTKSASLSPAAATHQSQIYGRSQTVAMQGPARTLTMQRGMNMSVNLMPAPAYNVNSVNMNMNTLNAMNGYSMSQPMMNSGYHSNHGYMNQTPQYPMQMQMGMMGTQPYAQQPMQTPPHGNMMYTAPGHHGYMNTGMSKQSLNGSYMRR
MOZ-KAT6A, sequence (Q92794 with tags, fused parts or gaps A567V): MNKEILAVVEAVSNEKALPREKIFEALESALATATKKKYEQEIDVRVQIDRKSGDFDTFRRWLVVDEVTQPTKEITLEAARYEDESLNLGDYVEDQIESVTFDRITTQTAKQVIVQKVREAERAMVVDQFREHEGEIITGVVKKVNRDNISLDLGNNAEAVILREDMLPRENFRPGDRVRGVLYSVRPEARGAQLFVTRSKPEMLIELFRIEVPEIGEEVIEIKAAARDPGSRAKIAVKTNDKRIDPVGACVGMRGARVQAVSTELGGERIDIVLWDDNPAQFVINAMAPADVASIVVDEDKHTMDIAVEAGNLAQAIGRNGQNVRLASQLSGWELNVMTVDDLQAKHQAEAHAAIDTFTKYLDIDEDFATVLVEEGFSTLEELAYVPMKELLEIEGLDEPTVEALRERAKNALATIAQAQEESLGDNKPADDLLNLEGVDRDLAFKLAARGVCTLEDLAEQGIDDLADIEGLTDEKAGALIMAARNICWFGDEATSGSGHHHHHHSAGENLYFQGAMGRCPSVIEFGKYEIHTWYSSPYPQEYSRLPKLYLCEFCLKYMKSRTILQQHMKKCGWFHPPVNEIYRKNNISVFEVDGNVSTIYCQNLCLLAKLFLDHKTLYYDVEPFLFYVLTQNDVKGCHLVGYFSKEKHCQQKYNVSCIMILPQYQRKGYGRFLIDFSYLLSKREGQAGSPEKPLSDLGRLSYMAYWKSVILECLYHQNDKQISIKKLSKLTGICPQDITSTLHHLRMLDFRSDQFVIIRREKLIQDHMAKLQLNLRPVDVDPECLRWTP
TIP60-KAT5, sequence (Q92993 with tags, fused parts or gaps isoform Q92993-2): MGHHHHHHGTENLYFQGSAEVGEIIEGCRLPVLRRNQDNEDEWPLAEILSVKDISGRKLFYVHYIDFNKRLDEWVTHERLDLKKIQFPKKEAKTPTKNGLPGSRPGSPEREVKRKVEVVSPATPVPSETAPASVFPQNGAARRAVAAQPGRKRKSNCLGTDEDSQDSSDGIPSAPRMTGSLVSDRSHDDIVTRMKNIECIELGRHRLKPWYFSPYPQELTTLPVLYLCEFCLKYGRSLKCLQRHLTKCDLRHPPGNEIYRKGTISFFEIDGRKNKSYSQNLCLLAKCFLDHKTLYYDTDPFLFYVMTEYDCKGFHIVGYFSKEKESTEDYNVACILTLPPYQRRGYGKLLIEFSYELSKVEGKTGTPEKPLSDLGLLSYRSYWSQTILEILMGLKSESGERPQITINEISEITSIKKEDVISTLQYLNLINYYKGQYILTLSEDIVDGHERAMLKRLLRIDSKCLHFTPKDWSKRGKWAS
HBO-KAT7, sequence (O95251 with tags, fused parts or gaps): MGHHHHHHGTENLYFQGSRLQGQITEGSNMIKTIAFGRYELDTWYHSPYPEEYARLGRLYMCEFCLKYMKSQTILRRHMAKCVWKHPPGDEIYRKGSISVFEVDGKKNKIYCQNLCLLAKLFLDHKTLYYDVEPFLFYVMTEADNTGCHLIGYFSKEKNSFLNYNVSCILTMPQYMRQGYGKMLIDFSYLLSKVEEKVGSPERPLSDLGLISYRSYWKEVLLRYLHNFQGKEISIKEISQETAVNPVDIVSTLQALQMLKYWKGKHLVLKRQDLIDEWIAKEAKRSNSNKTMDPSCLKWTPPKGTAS

For `CCc1ccc(OC)c(S(=O)(=O)Nc2noc3c(-c4ccccc4)cccc23)c1` [Example 178, 5-Ethyl-2-methoxy-N-(7-phenylbenzo[d]isoxazol-3-yl)benzenesulfonamide], the IC50 in test [1] is 3.07 µM; on TIP60-KAT5, 7.54 µM; in test [2], > 10 µM; on MOF-KAT8, 0.77 µM; on MOZ-KAT6A, 1.44 µM; at QKF-KAT6B, 2.46 µM. Besides, the concentration for half-maximal inhibition (IC50) in test [3] worked out at 5.59 µM; on HBO-KAT7, 0.482 µM.

(Values after patent US12365655B2, “Compounds” (CTXT PTY LTD, priority 2018, dated 2025).)
